Reference: patent US11866450B2, “Modulators of Cystic Fibrosis Transmembrane Conductance regulator, pharmaceutical compositions, methods of treatment, and process for making the modulators” (priority 2018, dated 2024)

Molecular target: CFTR-mediated chloride transport (Homo sapiens, UniProt P13569)
Type: cell-based
Conditions: enteroid cells incubated with test compound 18-24 hours, acute 10 μM forskolin and 300 nM Compound III; for Max. Activity: % of chloride transport with 3 μM Compound A, 3 μM Compound II and 300 nM acute Compound III triple combination control
Procedure, shortened: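 Human intestinal enteroid cells incubated with compound 18–24 h at 37° C., then membrane potential dye (FLIPR) read 15 min after chloride-free stimulation with 10 μM forskolin, 100 μM IBMX and 300 nM Compound III. AUC expressed as % of triple-combination control (3 μM Compound A, 3 μM Compound II, 300 nM Compound III).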

Chain of CFTR-mediated chloride transport (P13569 whole entry, looked up): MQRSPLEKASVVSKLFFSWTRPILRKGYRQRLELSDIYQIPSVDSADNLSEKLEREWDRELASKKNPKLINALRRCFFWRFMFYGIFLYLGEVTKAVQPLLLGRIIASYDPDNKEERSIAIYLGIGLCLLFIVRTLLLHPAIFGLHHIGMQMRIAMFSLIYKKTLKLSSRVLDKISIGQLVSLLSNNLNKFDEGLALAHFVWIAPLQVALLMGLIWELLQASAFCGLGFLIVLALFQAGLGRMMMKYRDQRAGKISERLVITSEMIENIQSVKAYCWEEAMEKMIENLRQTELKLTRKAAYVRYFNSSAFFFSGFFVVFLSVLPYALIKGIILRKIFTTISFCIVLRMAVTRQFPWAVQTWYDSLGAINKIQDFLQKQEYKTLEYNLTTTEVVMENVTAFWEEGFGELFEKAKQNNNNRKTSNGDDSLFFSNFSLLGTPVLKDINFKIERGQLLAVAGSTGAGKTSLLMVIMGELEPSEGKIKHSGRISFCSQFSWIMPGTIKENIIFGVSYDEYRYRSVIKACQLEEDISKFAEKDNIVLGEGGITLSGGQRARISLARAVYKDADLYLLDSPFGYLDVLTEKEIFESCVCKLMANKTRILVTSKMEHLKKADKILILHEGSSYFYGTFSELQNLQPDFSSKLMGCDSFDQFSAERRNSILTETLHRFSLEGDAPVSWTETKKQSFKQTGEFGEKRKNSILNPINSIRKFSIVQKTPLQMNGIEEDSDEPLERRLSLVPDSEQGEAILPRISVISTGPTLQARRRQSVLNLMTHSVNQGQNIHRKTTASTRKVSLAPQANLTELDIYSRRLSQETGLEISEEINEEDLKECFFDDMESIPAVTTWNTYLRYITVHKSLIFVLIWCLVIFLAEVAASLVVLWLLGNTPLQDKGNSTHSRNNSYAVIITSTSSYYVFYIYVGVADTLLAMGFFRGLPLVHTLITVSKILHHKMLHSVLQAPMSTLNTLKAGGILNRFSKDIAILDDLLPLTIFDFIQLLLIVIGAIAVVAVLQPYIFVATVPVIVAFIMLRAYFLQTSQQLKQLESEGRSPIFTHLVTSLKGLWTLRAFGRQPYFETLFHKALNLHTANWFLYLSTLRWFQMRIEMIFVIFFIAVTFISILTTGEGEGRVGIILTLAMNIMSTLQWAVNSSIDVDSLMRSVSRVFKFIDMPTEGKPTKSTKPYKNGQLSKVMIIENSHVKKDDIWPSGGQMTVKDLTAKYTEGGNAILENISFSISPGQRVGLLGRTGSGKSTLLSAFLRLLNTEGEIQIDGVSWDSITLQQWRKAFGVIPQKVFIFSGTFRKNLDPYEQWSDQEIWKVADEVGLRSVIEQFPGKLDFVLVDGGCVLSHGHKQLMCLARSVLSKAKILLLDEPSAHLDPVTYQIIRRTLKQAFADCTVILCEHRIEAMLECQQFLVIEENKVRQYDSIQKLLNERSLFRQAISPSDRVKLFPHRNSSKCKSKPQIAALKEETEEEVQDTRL

With `CC1(C)C[C@H]2CCCn3ccc(n3)S(=O)(=O)NC(=O)c3ccc(N4CC[C@H](CCCC5(C(F)(F)F)CC5)C4=O)nc3N1C2` (single isomer, unassigned) [Compound 181, 20,20-Dimethyl-4-(2-oxo-3-{3-[1-(trifluoromethyl)cyclopropyl]propyl}pyrrolidin-1-yl)-10λ^6-thia-1,3,9,14,22-pentaazatetracyclo[16.2.1.111,14.02,7]docosa-2,4,6,11(22),12-pentaene-8,10,10-trione] the EC50 was 1000 to 3000 nM and the “Max. Activity” value was “++ (++ is 30-60%)”.

In the case of `CC1CCC2CN(c3nc(N4CCN(CCC(C)(C)C)C4=O)ccc3C(=O)NS(=O)(=O)c3cccc(n3)N1)C(C)(C)C2` (centres unmarked) [Compound 209, 8-[3-(3,3-Dimethylbutyl)-2-oxoimidazolidin-1-yl]-12,12,17-trimethyl-2λ^6-thia-3,9,11,18,23-pentaazatetracyclo[17.3.1.111,14.05,10]tetracosa-1(22),5,7,9,19(23),20-hexaene-2,2,4-trione], the EC50 is reported as under 1000 nM and the “Max. Activity” value is reported as “++ (++ is 30-60%)”.

For `CC1(C)C[C@H]2CCCn3ccc(n3)S(=O)(=O)NC(=O)c3ccc(N4CC[C@H](OCCC5(C(F)(F)F)CC5)C4=O)nc3N1C2` (single isomer, unassigned) [Compound 191, 20,20-Dimethyl-4-(2-oxo-3-{2-[1-(trifluoromethyl)cyclopropyl]ethoxy}pyrrolidin-1-yl)-10λ^6-thia-1,3,9,14,22-pentaazatetracyclo[16.2.1.111,14.02,7]docosa-2,4,6,11(22),12-pentaene-8,10,10-trione], the EC50 was under 1000 nM and the “Max. Activity” value was “++ (++ is 30-60%)”.

For `Cc1c2cnn1CCCC[C@H]1CN(c3nc(-n4ccc(OCCC5(C(F)(F)F)CC5)n4)ccc3C(=O)NS2(=O)=O)C(C)(C)C1` (single isomer, unassigned) [Compound 81, 21,21,23-trimethyl-4-(3-{2-[1-(trifluoromethyl)cyclopropyl]ethoxy}-1H-pyrazol-1-yl)-10λ^6-thia-1,3,9,13,14-pentaazatetracyclo[17.2.1.111,14.02,7]tricosa-2,4,6,11(23),12-pentaene-8,10,10-trione], the EC50 was under 1000 nM and the “Max. Activity” value was “++ (++ is 30-60%)”.

For `CC1CN(c2ccc3c(n2)N2C[C@@H](CCCNc4cccc(n4)S(=O)(=O)NC3=O)CC2(C)C)C(=O)C1CCC(C)(C)C` (stereo partly drawn) [Compound 97, (14S)-8-[3-(3,3-dimethylbutyl)-4-methyl-2-oxopyrrolidin-1-yl]-12,12-dimethyl-2λ^6-thia-3,9,11,18,23-pentaazatetracyclo[17.3.1.111,14.05,10]tetracosa-1(22),5,7,9,19(23),20-hexaene-2,2,4-trione], the EC50 was under 1000 nM and the “Max. Activity” value was “+++ (+++ is >60%)”.

With `CC1(C)CC[C@H]2CNc3cccc(n3)S(=O)(=O)NC(=O)c3ccc(-n4ccc(OCCC5(C(F)(F)F)CC5)n4)nc3N21` (single isomer, unassigned) [Compound 51, 7,7-dimethyl-11-(3-{2-[1-(trifluoromethyl)cyclopropyl]ethoxy}-1H-pyrazol-1-yl)-17λ^6-thia-2,8,10,16,22-pentaazatetracyclo[16.3.1.04,8.09,14]docosa-1(22),9,11,13,18,20-hexaene-15,17,17-trione] the EC50 was over 3000 nM and the “Max. Activity” value was “+ (+ is <30%)”.

`CC1(C)C[C@@H]2CCCNc3cccc(n3)S(=O)(=O)NC(=O)c3ccc(N4CCC(OCCC5(C(F)(F)F)CC5)C4=O)nc3N1C2` (stereo partly drawn) [Compound 158, (14S)-12,12-Dimethyl-8-(2-oxo-3-{2-[1-(trifluoromethyl)cyclopropyl]ethoxy}pyrrolidin-1-yl)-2λ^6-thia-3,9,11,18,23-pentaazatetracyclo[17.3.1.111,14.05,10]tetracosa-1(22),5,7,9,19(23),20-hexaene-2,2,4-trione] was tested, and the EC50 was under 1000 nM and the “Max. Activity” value was “+++ (+++ is >60%)”.

`Cc1nn2cc1S(=O)(=O)NC(=O)c1ccc(-n3ccc(OCCC4(C(F)(F)F)CC4)n3)nc1N1C[C@H](CCCC2)CC1(C)C` (single isomer, unassigned) [Compound 91, 12,21,21-Trimethyl-4-(3-{2-[1-(trifluoromethyl)cyclopropyl]ethoxy}-1H-pyrazol-1-yl)-10λ^6-thia-1,3,9,13,14-pentaazatetracyclo[17.2.1.111,14.02,7]tricosa-2,4,6,11(23),12-pentaene-8,10,10-trione] was tested, and the EC50 was over 3000 nM and the “Max. Activity” value was “+ (+ is <30%)”.

For `CN1CCC[C@H]2CN(c3nc(-n4ccc(OCCC(C5CC5)C5CC5)n4)ccc3C(=O)NS(=O)(=O)c3cccc1n3)C(C)(C)C2` (single isomer, unassigned) [Compound 203, 8-[3-(3,3-Dicyclopropylpropoxy)-1H-pyrazol-1-yl]-12,12,18-trimethyl-2λ^6-thia-3,9,11,18,23-pentaazatetracyclo[17.3.1.111,14.05,10]tetracosa-1(22),5,7,9,19(23),20-hexaene-2,2,4-trione], the EC50 was under 1000 nM and the “Max. Activity” value was “+++ (+++ is >60%)”.

`CC1(C)C[C@H]2CCCCNc3cccc(n3)S(=O)(=O)NC(=O)c3ccc(-n4ccc(OCCC5(C(F)(F)F)CC5)n4)nc3N1C2` (single isomer, unassigned) [Compound 29, 12,12-dimethyl-8-(3-{2-[1-(trifluoromethyl)cyclopropyl]ethoxy}-1H-pyrazol-1-yl)-2λ^6-thia-3,9,11,19,24-pentaazatetracyclo[18.3.1.111,14.05,10]pentacosa-1(23),5,7,9,20(24),21-hexaene-2,2,4-trione] was tested, and the EC50 was under 1000 nM and the “Max. Activity” value was “++ (++ is 30-60%)”.

`C[C@@H]1CC[C@H]2CN(c3nc(N4CCN(CCC(C)(C)C)C4=O)ccc3C(=O)NS(=O)(=O)c3cccc(n3)N1)C(C)(C)C2` (single isomer, unassigned) [Compound 215, 8-[3-(3,3-dimethylbutyl)-2-oxoimidazolidin-1-yl]-12,12,17-trimethyl-2λ^6-thia-3,9,11,18,23-pentaazatetracyclo[17.3.1.111,14.05,10]tetracosa-1(22),5,7,9,19(23),20-hexaene-2,2,4-trione] was tested, and the EC50 was over 3000 nM and the “Max. Activity” value was “+ (+ is <30%)”.

In the case of `CC1(C)C[C@@H]2CCCNc3cccc(n3)S(=O)(=O)NC(=O)c3ccc(N4CCN(CC56CC7CC(CC(C7)C5)C6)C4=O)nc3N1C2` [Compound 229, (14S)-8-{3-[(adamantan-1-yl)methyl]-2-oxoimidazolidin-1-yl}-12,12-dimethyl-2λ^6-thia-3,9,11,18,23-pentaazatetracyclo[17.3.1.111,14.05,10]tetracosa-1(22),5,7,9,19(23),20-hexaene-2,2,4-trione], the EC50 is reported as under 1000 nM and the “Max. Activity” value is reported as “++ (++ is 30-60%)”.

For `Cc1nn2cc1S(=O)(=O)NC(=O)c1ccc(-n3ccc(OCC(C)(C)C(F)(F)F)n3)nc1N1C[C@H](CCC2)CC1(C)C` (single isomer, unassigned) [Compound 290, 12,20,20-trimethyl-4-[3-(3,3,3-trifluoro-2,2-dimethylpropoxy)-1H-pyrazol-1-yl]-10λ^6-thia-1,3,9,13,14-pentaazatetracyclo[16.2.1.111,14.02,7]docosa-2,4,6,11(22),12-pentaene-8,10,10-trione], the EC50 was over 3000 nM and the “Max. Activity” value was “+ (+ is <30%)”.

With `CC1(C)C[C@H]2CCCOc3ccc(cc3)S(=O)(=O)NC(=O)c3ccc(-n4ccc(OCCC5(C(F)(F)F)CC5)n4)nc3N1C2` (single isomer, unassigned) [Compound 99, 12,12-dimethyl-8-(3-{2-[1-(trifluoromethyl)cyclopropyl]ethoxy}-1H-pyrazol-1-yl)-18-oxa-2λ^6-thia-3,9,11-triazatetracyclo[17.2.2.111,14.05,10]tetracosa-1(21),5,7,9,19,22-hexaene-2,2,4-trione] the EC50 was under 1000 nM and the “Max. Activity” value was “+++ (+++ is >60%)”.

With `CC1(C)CC[C@H]2CCNc3cccc(n3)S(=O)(=O)NC(=O)c3ccc(-n4ccc(OCCC5(C(F)(F)F)CC5)n4)nc3N21` (single isomer, unassigned) [Compound 117, 8,8-dimethyl-12-(3-{2-[1-(trifluoromethyl)cyclopropyl]ethoxy}-1H-pyrazol-1-yl)-18λ^6-thia-2,9,11,17,23-pentaazatetracyclo[17.3.1.05,9.010,15]tricosa-1(23),10(15),11,13,19,21-hexaene-16,18,18-trione] the EC50 was under 1000 nM and the “Max. Activity” value was “++ (++ is 30-60%)”.

In the case of `CC1(C)C[C@H]2CCCOc3ccc(cc3)S(=O)(=O)NC(=O)c3ccc(-n4ccc(OCCC5(C(F)(F)F)CC5)n4)nc3N1C2` (single isomer, unassigned) [Compound 100, 12,12-dimethyl-8-(3-{2-[1-(trifluoromethyl)cyclopropyl]ethoxy}-1H-pyrazol-1-yl)-18-oxa-2λ^6-thia-3,9,11-triazatetracyclo[17.2.2.111,14.05,10]tetracosa-1(21),5,7,9,19,22-hexaene-2,2,4-trione], the EC50 is reported as over 3000 nM and the “Max. Activity” value is reported as “+ (+ is <30%)”.

With `CC1(C)C[C@H]2CCn3ccc(n3)S(=O)(=O)NC(=O)c3ccc(-n4ccc(OCCCC5(C(F)(F)F)CC5)n4)nc3N1C2` (single isomer, unassigned) [Compound 279, 19,19-dimethyl-4-(3-{3-[1-(trifluoromethyl)cyclopropyl]propoxy}-1H-pyrazol-1-yl)-10λ^6-thia-1,3,9,14,21-pentaazatetracyclo[15.2.1.111,14.02,7]henicosa-2,4,6,11(21),12-pentaene-8,10,10-trione] the EC50 was under 1000 nM and the “Max. Activity” value was “++ (++ is 30-60%)”.

For `CC(C)(C)CCC1CCN(c2ccc3c(n2)N2C[C@@H](CCCNc4cccc(n4)S(=O)(=O)NC3=O)CC2(C)C)C1=O` (stereo partly drawn) [Compound 79, (14S)-8-[3-(3,3-dimethylbutyl)-2-oxopyrrolidin-1-yl]-12,12-dimethyl-2λ^6-thia-3,9,11,18,23-pentaazatetracyclo[17.3.1.111,14.05,10]tetracosa-1(23),5,7,9,19,21-hexaene-2,2,4-trione], the EC50 was under 1000 nM and the “Max. Activity” value was “++ (++ is 30-60%)”.

For `CC1(C)C[C@@H]2CCCNc3cccc(n3)S(=O)(=O)NC(=O)c3ccc(N4CC[C@H](OCCC5C6(CC6)C56CC6)C4=O)nc3N1C2` (single isomer, unassigned) [Compound 180], the EC50 was under 1000 nM and the “Max. Activity” value was “+++ (+++ is >60%)”.
